Tests used:
[1] = system: cultured human mast cells (CHMC); experiment: CHMC low cell density IgE activation: tryptase assay; type: cell-based; details: anti-IgE
Method in brief: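 Low-density CHMC assay: donor-adjusted 1000-1500 cells/well, MT buffer, 1 hr 37° C preincubation; anti-IgE stimulus 30 min 37° C versus MT-only controls; supernatant tryptase by substrate, 30 min RT.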

[2] = system: cultured human mast cells (CHMC); experiment: CHMC low cell density ionomycin activation: tryptase assay; type: cell-based

Row | SMILES | IC50 [1] | IC50 [2]
1 | CNC(=O)COc1ccc(Nc2ncc(F)c(Nc3ccc4c(c3)OCCO4)n2)cc1 [R926708, N4-(3,4-Ethylenedioxyphenyl)-5-fluoro-N2-[4-(N-methylamino)carbonylmethyleneoxyphenyl]-2,4-pyrimidinediamine] | 0.472 µM | > 10 µM
2 | Fc1cnc(Nc2cccc(NCCOCc3ccccc3)c2)nc1Nc1cccc(NCCOCc2ccccc2)c1 [R950174, N2,N4-Bis[3-(N-benzyloxyethyleneamino)phenyl]-5-fluoro-2,4-pyrimidinediamine] | 4.62 µM | > 10 µM
3 | O=C(CNc1cccc(Nc2ncc(F)c(Nc3cccc(NCCO)c3)n2)c1)N1CCOCC1 [R950236, 5-Fluoro-N4-[3-(2-hydroxyethylamino)phenyl]-N2-[3-(N-morpholino)carbonylmethyleneaminophenyl]-2,4-pyrimidinediamine] | 0.955 µM | > 10 µM
4 | COC(=O)c1cc2cc(Nc3nc(Nc4cccc(OCc5noc(C)n5)c4)ncc3F)ccc2o1 [R945131, 5-Fluoro-N4-(2-methoxycarbonylbenzofuran-5-yl)-N2-[3-(5-methyl-1,2,4-oxadiazol-3-yl)methyleneoxyphenyl]-2,4-pyrimidinediamine] | 0.77 µM | > 10 µM
5 | CCOC(=O)c1cnc(N[C@@H](Cc2ccccc2)C(=O)OCC)nc1N[C@@H](Cc1ccccc1)C(=O)OCC [R926526, 2,4-Bis[N-(L)-phenylalaninylethyl ester]-5-ethoxycarbonylpyrimidine] | > 10 µM | > 10 µM
6 | CCOC(=O)c1cnc(Nc2ccc(OCC(=O)O)cc2)nc1Nc1ccc(OCC(=O)OC)cc1 [R926584, N2-(4-Carboxymethyleneoxyphenyl)-5-ethoxycarbonyl-N4-(4-methoxycarbonylmethyleneoxyphenyl)-2,4-pyrimidinediamine] | > 10 µM | > 10 µM
7 | CNC(=O)COc1cccc(Nc2ncc(F)c(Nc3cccc(C(=NO)c4ccccc4)c3)n2)c1 [R950374, N4-(3-Phenylcarbonyloximephenyl)-5-fluoro-N2-[3-(N-methylamino)carbonylmethyleneoxyphenyl]-2,4-pyrimidinediamine] | 0.599 µM | > 10 µM
8 | NCCNC(=O)c1cc2cc(Nc3ncc(F)c(Nc4ccc5oc(C(=O)NCCN)cc5c4)n3)ccc2o1 [R950168, N2,N4-Bis[2-(2-aminoethyleneamoinocarbonyl)-benzofurane-5-yl]-5-fluoro-2,4-pyrimidinediamine] | 6.5 µM | 8.65 µM
9 | CC(C)Oc1ccc(Nc2nc(Nc3ccc4c(cnn4CCO)c3)ncc2F)cc1 [R935255, 5-Fluoro-N2-[1-(2-hydroxyethyl)indazoline-5-yl]-N4-(4-isopropoxyphenyl)-2,4-pyrimidinediamine] | 0.374 µM | > 10 µM
10 | Fc1ccc(Nc2ccnc(Nc3ccc(F)c(Cl)c3)n2)cc1Cl [R935163, N2,N4-Bis(3-chloro-4-fluoropheny)-2,4-pyrimidinediamine] | > 10 µM | > 10 µM
11 | CC(C)(CO)c1ccc(Nc2nc(Nc3ccc4c(c3)OCCO4)ncc2F)cc1 [R935173, N2-(3,4-Ethylenedioxyphenyl)-5-fluoro-N4-[4-(2-hydroxy-1,1-dimethylethyl)phenyl]-2,4-pyrimidinediamine] | 0.454 µM | > 10 µM
12 | Nc1cccc(Nc2ncc(F)c(Nc3cccc(NCCOCc4ccccc4)c3)n2)c1 [R950175, N2-(3-Aminophenyl)-N4-[3-(N-benzyloxyethyleneamino)phenyl]-5-fluoro-2,4-pyrimidinediamine] | 1.69 µM | > 10 µM
13 | CNCCNC(=O)CNc1cccc(Nc2ncc(F)c(Nc3ccc4c(c3)OCCO4)n2)c1 [R950196, N4-(3,4-Ethylenedioxyphenyl)-5-fluoro-N2-[3-(N-methylamino)ethyleneaminocarbonylmethyleneaminophenyl]-2,4-pyrimidinediamine] | 2.2 µM | > 10 µM
14 | CCOC(=O)CNc1nc(Nc2ccc(OCC(=O)OCC)cc2)nc(C(=O)OCC)c1[N+](=O)[O-] [R925858, 6-Ethoxycarbonyl-N4-(ethoxycarbonylmethyl)-N2-(4-ethoxycarbonylmethyleneoxyphenyl)-5-nitro-2,4-pyrimidinediamine] | 8.05 µM | 7.3 µM
15 | OCCn1ncc2cc(Nc3nc(Nc4cccc(O)c4)ncc3F)ccc21 [R935259, 5-Fluoro-N4-[1-(2-hydroxyethyl)indazoline-5-yl]-N2-(3-hydroxyphenyl)-2,4-pyrimidinediamine] | 1.78 µM | > 10 µM
16 | O=C(COc1cccc(Nc2ncc(F)c(Nc3ccc4c(c3)OCCO4)n2)c1)N(CCO)CCO [R926781, N2-[3-[N,N-Bis-(2-hydroxyethylamino)]carbonylmethyleneoxyphenyl]-N4-(3,4-ethylenedioxyphenyl)-5-fluoro-2,4-pyrimidinediamine] | 0.573 µM | > 10 µM
17 | OCCCn1ncc2cc(Nc3ncc(F)c(Nc4cccc(O)c4)n3)ccc21 [R935304, 5-Fluoro-N4-(3-hydroxyphenyl)-N2-[1-(3-hydroxypropyl)indazoline-5-yl]-2,4-pyrimidinediamine] | 0.188 µM | > 10 µM
18 | CNC(=O)COc1ccc(Nc2nc(Nc3ccc4c(c3)OCCO4)ncc2Br)cc1 [R925851, 5-Bromo-N2-(3,4-ethylenedioxyphenyl)-N4-[4-(N-methylamino)carbonylmethyleneoxyphenyl]-2,4-pyrimidinediamine] | 0.925 µM | > 10 µM
19 | COC(=O)c1cc(Nc2ncc(F)c(Nc3ccc(OC(C)C)cc3)n2)cn1C [R935164, 5-Fluoro-N4-(4-isopropoxyphenyl)-N2-[(N-methyl-2-methoxycarbonyl)pyrrol-4-yl]-2,4-pyrimidinediamine] | 0.204 µM | > 10 µM
20 | COC(=O)Cn1ncc2ccc(Nc3nc(Nc4cccc(O)c4)ncc3F)cc21 [R935220, 5-Fluoro-N2-(3-hydroxyphenyl)-N4-[1-(methoxycarbonyl)methyl-indazoline-6-yl]-2,4-pyrimidinediamine] | 3.79 µM | > 10 µM
21 | CNC(=O)COc1cccc(Nc2ncc(F)c(Nc3ccc(Cl)c(-c4nc5ccccc5s4)c3)n2)c1 [R926900, N4-[3-(Benzothiazol-2-yl)-4-chlorophenyl]-5-fluoro-N2-[3-[(N-methylamino)carbonylmethyleneoxy]phenyl)-2,4-pyrimidinediamine] | > 10 µM | > 10 µM
22 | COC(=O)c1cnc(Nc2ccc(OCC(=O)N3CCCC3)cc2)nc1Nc1ccc(OCC(=O)N2CCCC2)cc1 [R926559, 5-Methoxycarbonyl-N2,N4-bis[4-(N-pyrrolidino)carbonylmethyleneoxyphenyl)-2,4-pyrimidinediamine] | 7.7 µM | > 10 µM
23 | NC(=O)COc1ccc(Nc2ncc(F)c(Nc3cccc(O)c3)n2)cc1 [R945064, N2-[4-(Aminocarbonylmethyleneoxy)phenyl]-5-fluoro-N4-(3-hydroxyphenyl)-2,4-pyrimidinediamine] | 0.53 µM | > 10 µM
24 | Fc1cnc(Nc2ccc3[nH]ncc3c2)nc1Nc1ccc(Cl)c(Cl)c1 [R935371, N4-(3,4-Dichlorophenyl)-5-fluoro-N2-(indazoline-5-yl)-2,4-pyrimidinediamine] | 0.794 µM | > 10 µM
25 | O=C(COc1cccc(Nc2ncc(F)c(Nc3ccc4c(c3)OCCO4)n2)c1)NC1CCCCC1 [R926765, N2-[3-(N-Cyclohexylamino)carbonylmethyleneoxyphenyl]-N4-(3,4-ethylenedioxyphenyl)-5-fluoro-2,4-pyrimidinediamine] | 0.324 µM | 4.39 µM

From patent publication US9499493B2, “2,4-pyrimidinediamine compounds and their uses” (Rigel Pharmaceuticals, Inc., priority 2002, dated 2016)
